The source of these data is US20130096107A1, “USE OF AMINODIHYDROTHIAZINES FOR THE TREATMENT OR PREVENTION OF DIABETES” (Hoffmann-La Roche Inc., priority 2009, published 2013).

This assay concerns the target T1, BACE2 (Homo sapiens, UniProt Q9Y5Z0).
T1 construct: BACE2 enzyme ectodomain (derived from plasmid “pET17b-T7-hu proBACE2”); T7 tag; made in house; a pET17b plasmid implies E. coli (own knowledge)
T1 sequence (Q9Y5Z0 63-473 limits assumed): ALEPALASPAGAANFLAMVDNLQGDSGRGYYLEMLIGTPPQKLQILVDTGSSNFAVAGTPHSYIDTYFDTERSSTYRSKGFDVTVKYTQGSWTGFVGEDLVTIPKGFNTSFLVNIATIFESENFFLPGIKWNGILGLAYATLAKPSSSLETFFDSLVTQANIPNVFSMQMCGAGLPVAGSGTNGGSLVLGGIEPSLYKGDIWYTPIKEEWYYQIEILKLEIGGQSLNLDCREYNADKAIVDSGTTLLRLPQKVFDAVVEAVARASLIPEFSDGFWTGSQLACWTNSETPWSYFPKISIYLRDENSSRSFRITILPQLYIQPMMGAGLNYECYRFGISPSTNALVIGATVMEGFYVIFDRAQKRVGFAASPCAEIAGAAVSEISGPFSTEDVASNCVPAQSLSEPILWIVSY
The assay is described as follows: Immunofluorescence Resonance Energy Transfer (FRET) assay for BACE2 inhibition. The class given is biochemical. The note with it: pH 4.5; 5 μM TMEM27-based FRET peptide substrate. The method, then:
BACE2 enzyme ectodomain (derived from plasmid “pET17b-T7-hu proBACE2”) was prepared as described in Ostermann et al., “Crystal Structure of Human BACE2 in Complex with a Hydroxyethylamine Transition-state Inhibitor”, Journal of Molecular Biology 2006, 355, 249-261. The pro-enzyme was stored at 4° C. at a concentration of 70 μg/ml.
The FRET assay was performed essentially as described in Grüninger-Leitch et al., Journal of Biological Chemistry (2002) 277(7) 4687-93 (“Substrate and inhibitor profile of BACE (beta-secretase) and comparison with other mammalian aspartic proteases”). In summary, a peptide is designed that is cleaved by the protease. The peptide is labelled with dabcyl at the N terminus and Lucifer Yellow at the C-terminus, such that for an intact peptide the Lucifer Yellow fluorescence is quenched by the dabcyl. When the peptide is cut by BACE2, the quenching is removed and a fluorescent signal is generated.
The assay was performed as described in Grueninger et al. 2002 at pH 4.5 using a substrate concentration of 5 μM. A FRET peptide based on the TMEM27 sequence was devised. dabcyl—[…]—LucY.
The assay readout is the initial rate of change of fluorescence intensity giving a relative measure of BACE2 activity. Small values correspond to high inhibition and larger values to low inhibition. […] IC50 values were determined using these assay values generated for a range of inhibitor concentrations and the curve fitting software XLfit (IDBS) using the Sigmoidal Dose-Response Model.

SMILES strings stand for the structures.

Compound `CC[C@@]1(c2cc(NC(=O)c3ncccc3C(F)(F)F)ccc2F)CCSC(N)=N1` [Example 7, 3-Trifluoromethyl-pyridine-2-carboxylic acid [3-((S)-2-amino-4-ethyl-5,6-dihydro-4H-[1,3]thiazin-4-yl)-4-fluoro-phenyl]-amide] registered an IC50 of 5460 nM.

With `CC[C@@]1(c2cc(NC(=O)c3ccc(Cl)cc3)ccc2F)CCSC(N)=N1` [Example 4, N-[3-((S)-2-Amino-4-ethyl-5,6-dihydro-4H-[1,3]thiazin-4-yl)-4-fluoro-phenyl]-4-chloro-benzamide], the IC50 worked out at 2700 nM.

Compound `CC[C@@]1(c2cc(NC(=O)c3ccc(C)s3)ccc2F)CCSC(N)=N1` [Example 16, 5-Methyl-thiophene-2-carboxylic acid [3-((S)-2-amino-4-ethyl-5,6-dihydro-4H-[1,3]thiazin-4-yl)-4-fluoro-phenyl]-amide] showed a 50% inhibitory concentration (IC50) of 667 nM.

`CC[C@@]1(c2cc(NC(=O)c3nccc4ccsc34)ccc2F)CCSC(N)=N1` [Example 14, Thieno[2,3-c]pyridine-7-carboxylic acid [3-((S)-2-amino-4-ethyl-5,6-dihydro-4H-[1,3]thiazin-4-yl)-4-fluoro-phenyl]-amide] registered an IC50 of 3080 nM.

Compound `CC[C@@]1(c2cc(NC(=O)c3csc(C)n3)ccc2F)CCSC(N)=N1` [Example 19, 2-Methyl-thiazole-4-carboxylic acid [3-((S)-2-amino-4-ethyl-5,6-dihydro-4H-[1,3]thiazin-4-yl)-4-fluoro-phenyl]-amide] came in with an IC50 of 33600 nM.

As to `CC[C@@]1(c2cc(NC(=O)c3nc(Cl)ccc3Cl)ccc2F)CCSC(N)=N1` [Example 11, 3,6-Dichloro-pyridine-2-carboxylic acid [3-((S)-2-amino-4-ethyl-5,6-dihydro-4H-[1,3]thiazin-4-yl)-4-fluoro-phenyl]-amide], half-maximal inhibition (IC50) required 23000 nM.

For `CC[C@@]1(c2cc(NC(=O)c3ncccc3-c3ccccc3)ccc2F)CCSC(N)=N1` [Example 8, 3-Phenyl-pyridine-2-carboxylic acid [3-((S)-2-amino-4-ethyl-5,6-dihydro-4H-[1,3]thiazin-4-yl)-4-fluoro-phenyl]-amide], the IC50 stood at 4930 nM.

`CC[C@@]1(c2cc(NC(=O)c3ccccn3)ccc2F)CCSC(N)=N1` [Example 3, Pyridine-2-carboxylic acid [3-((S)-2-amino-4-ethyl-5,6-dihydro-4H-[1,3]thiazin-4-yl)-4-fluoro-phenyl]-amide] registered a concentration for half-maximal inhibition (IC50) of 1030 nM.

In the case of `CC[C@@]1(c2cc(NC(=O)c3cc(Cl)ccn3)ccc2F)CCSC(N)=N1` [Example 9, 4-Chloro-pyridine-2-carboxylic acid [3-((S)-2-amino-4-ethyl-5,6-dihydro-4H-[1,3]thiazin-4-yl)-4-fluoro-phenyl]-amide], the IC50 came to 41000 nM. This IC50 is about 40-fold higher than that of the compound before.

Compound `CC[C@@]1(c2cc(NC(=O)c3cnc(Cl)cn3)ccc2F)CCSC(N)=N1` [Example 5, 5-Chloro-pyrazine-2-carboxylic acid [3-((S)-2-amino-4-ethyl-5,6-dihydro-4H-[1,3]thiazin-4-yl)-4-fluoro-phenyl]-amide] displayed an IC50 of 1000 nM.

Turning to `CC[C@@]1(c2cc(NC(=O)c3cc4ccccc4cn3)ccc2F)CCSC(N)=N1` [Example 13, Isoquinoline-3-carboxylic acid [3-((S)-2-amino-4-ethyl-5,6-dihydro-4H-[1,3]thiazin-4-yl)-4-fluoro-phenyl]-amide], 9100 nM corresponded to half-maximal inhibition (IC50). This IC50 lies about 9.1-fold higher than the previous one.

In the case of `CC[C@@]1(c2cc(NC(=O)c3ncc(Cl)cn3)ccc2F)CCSC(N)=N1` [Example 6, 5-Chloro-pyrimidine-2-carboxylic acid [3-((S)-2-amino-4-ethyl-5,6-dihydro-4H-[1,3]thiazin-4-yl)-4-fluoro-phenyl]-amide], half-maximal inhibition (IC50) was put at 440 nM.

Compound `CC[C@@]1(c2cc(NC(=O)c3ccc(Cl)cn3)ccc2F)CCSC(N)=N1` [Example 2, 5-Chloro-pyridine-2-carboxylic acid [3-((S)-2-amino-4-ethyl-5,6-dihydro-4H-[1,3]thiazin-4-yl)-4-fluoro-phenyl]-amide] gave an IC50 of 8 nM. Against the preceding compound, the IC50 is about 55-fold lower.

`CC[C@@]1(c2cc(NC(=O)c3coc(C)n3)ccc2F)CCSC(N)=N1` [Example 18, 2-Methyl-oxazole-4-carboxylic acid [3-((S)-2-amino-4-ethyl-5,6-dihydro-4H-[1,3]thiazin-4-yl)-4-fluoro-phenyl]-amide] showed a concentration for half-maximal inhibition (IC50) of 475 nM. This IC50 is about 59-fold higher than that of the compound before.

For `CC[C@@]1(c2cc(NC(=O)c3cccc(C)n3)ccc2F)CCSC(N)=N1` [Example 10, 6-Methyl-pyridine-2-carboxylic acid [3-((S)-2-amino-4-ethyl-5,6-dihydro-4H-[1,3]thiazin-4-yl)-4-fluoro-phenyl]-amide], the IC50 came to 50900 nM.

`CC[C@@]1(c2cc(NC(=O)c3cc4ccccc4s3)ccc2F)CCSC(N)=N1` [Example 15, Benzo[b]thiophene-2-carboxylic acid [3-((S)-2-amino-4-ethyl-5,6-dihydro-4H-[1,3]thiazin-4-yl)-4-fluoro-phenyl]-amide] gave an IC50 of 916 nM.

`CC[C@@]1(c2cc(NC(=O)c3nc(Cl)ccc3C(F)(F)F)ccc2F)CCSC(N)=N1` [Example 12, 6-Chloro-3-trifluoromethyl-pyridine-2-carboxylic acid [3-((S)-2-amino-4-ethyl-5,6-dihydro-4H-[1,3]thiazin-4-yl)-4-fluoro-phenyl]-amide] returned an IC50 of 33500 nM.

On to `CC[C@@]1(c2cc(NC(=O)c3ccn(C)n3)ccc2F)CCSC(N)=N1` [Example 17, 1-Methyl-1H-pyrazole-3-carboxylic acid [3-((S)-2-amino-4-ethyl-5,6-dihydro-4H-[1,3]thiazin-4-yl)-4-fluoro-phenyl]-amide], for which the IC50 is 2140 nM.
